# Assay results reported in PubChem BioAssay (NCI).
#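 Following 48 hours of exposure in 96-well plates, responses at five concentrations were used to interpolate endpoints linearly. GI50 marks 50% less growth. TGI: concentration producing complete growth inhibition.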
# Experiments:
# Assay in all cases: growth of human tumour cells (NCI), 48 h
# NCI-H226 lung = test system: NCI-H226 lung
# HCC-2998 colon = test system: HCC-2998 colon
# SK-MEL-2 melanoma = test system: SK-MEL-2 melanoma
# UO-31 renal = test system: UO-31 renal
# MDA-MB-231 breast = test system: MDA-MB-231 breast
# SF-539 CNS = test system: SF-539 CNS
# RXF 393 renal = test system: RXF 393 renal
# NCI/ADR-RES ovarian = test system: NCI/ADR-RES ovarian
# M14 melanoma = test system: M14 melanoma
# OVCAR-3 ovarian = test system: OVCAR-3 ovarian
SMILES,GI50 (NCI-H226 lung) [µM],TGI (NCI-H226 lung) [µM],GI50 (HCC-2998 colon) [µM],TGI (HCC-2998 colon) [µM],GI50 (SK-MEL-2 melanoma) [µM],TGI (SK-MEL-2 melanoma) [µM],GI50 (UO-31 renal) [µM],TGI (UO-31 renal) [µM],GI50 (MDA-MB-231 breast) [µM],TGI (MDA-MB-231 breast) [µM],GI50 (SF-539 CNS) [µM],TGI (SF-539 CNS) [µM],GI50 (RXF 393 renal) [µM],TGI (RXF 393 renal) [µM],GI50 (NCI/ADR-RES ovarian) [µM],TGI (NCI/ADR-RES ovarian) [µM],GI50 (M14 melanoma) [µM],TGI (M14 melanoma) [µM],GI50 (OVCAR-3 ovarian) [µM],TGI (OVCAR-3 ovarian) [µM]
NNc1nc(-c2ccccn2)nc2sc3c(c12)CCCCCC3,10.3,89.1,8.31,> 100,14.4,> 100,1.03,18.7,12.7,> 100,10.9,> 100,6.8,43,0.453,52.3,5.46,46.8,5.31,93.7
CCNCCNc1cc(C2CCCC2)c(C#N)c2nc3ccccc3n12,3.49,17.5,3.48,15.3,3.91,16.1,1.67,3.18,2.37,5.27,1.67,3.25,1.81,4,4.55,19,2.06,4.08,1.7,3.18
O=S(=O)(c1ccccc1)C1CN(Cc2ccccc2)CCN(Cc2ccccc2)C1,–,> 100,–,> 100,–,> 100,–,77.3,–,> 100,–,> 100,–,43.3,–,78.1,–,> 100,–,> 95.8
CSc1ccc2c(c1)C(=O)c1c-2n(CCCN=[N+]=[N-])c(=O)c2cc([N+](=O)[O-])ccc12,8.74,> 100,1.57,66,66.7,> 100,1.62,> 100,> 100,> 100,1.46,> 100,> 34.4,> 100,3.15,> 100,1.29,> 100,8.87,> 89.5
CC(=O)/C=C/c1ccc(N(C)Cc2ccc(C(C)(C)C)cc2)cc1,149,315,149,340,164,344,83.2,212,122,293,161,316,131,272,114,271,132,321,126,264
CCOC(=O)C1=C(N)Oc2cc(OC)ccc2C1c1ccc(F)c(F)c1 (configuration not stated),12.9,32.7,4.14,18.4,0.542,15.8,5.22,19.7,2.48,13.8,2.13,8.3,1.55,8.76,0.703,17,0.483,13.5,0.497,6.09
N=c1c2c(=O)n3c(nc2nc2sc4ccc(Cl)cc4n12)-c1ccccc1Sc1ccccc1-3,2.92,21.5,3.12,12.8,2.07,5.99,2.29,9.97,2.56,16.2,3.34,18.4,3.23,16.2,2.05,7.5,2.99,10.6,1.89,8.27
COc1ccc(/C=C2\CCCC3=C2N=C2SC=NN2C3c2ccc(OC)c(OC)c2)cc1OC (configuration not stated),18.5,89.2,> 100,> 100,25.8,> 100,15.3,> 100,26,> 100,14.6,68.5,4.91,24.3,18.2,> 100,11.9,> 100,4.62,75.4
O=C1[C@H](c2ccccc2)C2c3ccccc3CCN12 (some centres not stated),> 100,> 100,> 100,> 100,> 100,> 100,–,> 100,> 100,> 100,> 100,> 100,> 100,> 100,> 100,> 100,> 100,> 100,> 100,> 100
COc1cc2c3c(n(CCCN4CCOCC4)c(=O)c2cc1OC)-c1cc2c(cc1C3=O)OCO2,4.6,> 81.8,10.7,65.4,> 100,> 100,5.87,> 100,3.92,–,0.165,2.37,–,> 66.6,1.57,27.1,0.9,22.2,15.6,> 50.7
Cc1ccc(S(=O)(=O)C2=C3C(=C(c4ccccc4)c4ccccc43)CN(S(=O)(=O)c3ccc(C)cc3)C2)cc1,2.57,7.85,22.5,> 100,6.1,30.3,1.95,18.2,2.9,11.1,10.9,49,4.01,16,2.98,90.7,5.63,34.4,4.34,18.8
